Data as given in patent publication US12704502B2, “Methods and systems for determining metabolic poise and capacity of living cells” (AGILENT TECHNOLOGIES, INC., priority 2021, dated 2026).

Experiments:
[1] = system: Human Peripheral Blood CD4+ T cells
Method: (§1) Uncoupled respiration measurements were measured in adherent cells epithelioid carcinoma Panc-1 cells (ATCC, CRL-1469) with FCCP. Cells were cultured in Dulbecco's Modified Eagle's Medium (DMEM) supplemented with 10% FBS at 37 C, 5% CO2 incubator according to supplier information. Day before the assay, cells were detached using Trypsin-EDTA solution and seeded in XFe96 cell culture miniplates (Agilent) at 10,000 cells/well. Cells were incubated for 18 hr at 37 C, 5% CO2 incubator. To measure OCR, cells were washed, and cell culture medium was replaced by XF DMEM pH 7.4 supplemented with 10 mM glucose, 2 mM glutamine and 1 mM pyruvate.

[2] = system: epithelioid carcinoma Panc-1 cells; details: 2 μM FCCP, FIGS. 1A-1C
Method: as §1

[3] = system: Human Peripheral Blood NK cells; details: 1.5, 2, 2.5 or 3 μM, FIGS. 12A-12B
Method: NK cells were cultured as described herein (e.g., in Example 1).

## FCCP
[1]; T cells, FIGS. 2B, 3B
  OCR after the rotenone+antimycin A injection: overestimation of OCR
[1]; T cells, after oligomycin, FIGS. 2A, 2C, 3A, 3C
  stability of uncoupled respiration during the 3 min of the measurement: inconsistent uncoupled respiration
[1]; naïve CD4+ T cells, 0.5, 1, 1.5, 2, 2.5 or 3 μM, FIGS. 4A-4B
  maximal respiration in titration of uncoupler: not as robust nor was there an increase in a dose-dependent manner
[2]
  oxygen consumption on addition of uncoupler: robust increase in oxygen consumption
[3]
  maximal respiration in titration of uncoupler: not as robust
